# Target: T1, Chk1 (Homo sapiens, UniProt O14757)
# T1 construct: purchased Upstate Biotechnology
# T1 sequence (O14757 1-476): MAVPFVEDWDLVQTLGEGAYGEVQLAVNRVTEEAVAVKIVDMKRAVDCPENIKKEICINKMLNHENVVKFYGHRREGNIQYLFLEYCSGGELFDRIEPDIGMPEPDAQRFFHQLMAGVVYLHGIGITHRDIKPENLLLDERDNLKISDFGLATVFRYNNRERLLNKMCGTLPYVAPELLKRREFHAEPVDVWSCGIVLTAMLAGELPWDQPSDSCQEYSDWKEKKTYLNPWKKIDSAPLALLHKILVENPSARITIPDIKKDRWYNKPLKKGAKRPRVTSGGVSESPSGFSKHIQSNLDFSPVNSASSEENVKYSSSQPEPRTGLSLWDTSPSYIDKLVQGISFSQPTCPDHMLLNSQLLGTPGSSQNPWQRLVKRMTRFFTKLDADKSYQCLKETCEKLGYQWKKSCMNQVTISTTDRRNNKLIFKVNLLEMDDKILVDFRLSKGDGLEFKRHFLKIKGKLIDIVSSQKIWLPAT
# Experiment: Chk1 kinase assay: incorporation of γ-33P ATP into immobilized myelin basic protein
# Type: biochemical
# Settings: Table 11, Chk1 only; class symbols A-D; read-out: Chk1 IC50
# Summary of the method: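 MBP coated on plates (20 μg/ml) was phosphorylated by Chk1 (10 nM) or Chk2 (20 nM) with γ-33P ATP plus 10 μM (Chk1) or 30 μM (Chk2) unlabeled ATP, 1 h at room temperature, 1% DMSO. Bound radioactivity was counted by scintillation after washing; IC50 or Ki derived from fitted rate data.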
row,Structure (SMILES),IC50 [nM]
1,"Nc1ncc(-c2cccc(CN[C@H]3CCc4ccccc43)c2)nc1C(=O)N[C@H]1CN2CCC1CC2 [Example 863, 3-amino-N-[(3R)-1-azabicyclo[2.2.2]oct-3-yl]-6(3-{[(1S)-2,3-dihydro-1H-inden-1-ylamino]methyl}phenyl)pyrazine-2-carboxamide]",50 to 1000
2,"CSc1ccc(CNC(=O)c2cccc(-c3cnc(N)c(C(=O)N[C@H]4CCCNC4)n3)c2)cc1 [Example 864, 3-amino-6-{3-[({[4-(methylthio)phenyl]methyl}amino)carbonyl]phenyl}-N-[(3S)-piperidin-3-yl]pyrazine-2-carboxamide]",< 50
3,"Nc1ncc(-c2cccc(C(=O)NCc3ccc(F)cc3F)c2)nc1-c1nc([C@H]2CCCNC2)n[nH]1 [Example 865, 3-(5-amino-6-{3-[(3S)-piperidin-3-yl]-1H-1,2,4-triazol-5-yl}pyrazin-2-yl)-N-[(2,4-difluorophenyl)methyl]benzamide]",< 50
4,"Nc1ncc(-c2cccc(C(=O)NC(Cc3ccccc3)c3ccccc3)c2)nc1C(=O)N[C@H]1CCCNC1 (stereo partly drawn) [Example 866, 3-amino-6-(3-{[(1,2-diphenylethyl)amino]carbonyl}phenyl)-N-[(3S)-piperidin-3-yl]pyrazine-2-carboxamide]",< 50
5,"Nc1ncc(-c2cccc(C(=O)NCc3ccc(F)c(F)c3)c2)nc1-c1nc([C@H]2CCCNC2)n[nH]1 [Example 867, 3-(5-amino-6-{3-[(3S)-piperidin-3-yl]-1H-1,2,4-triazol-5-yl}pyrazin-2-yl)-N-[(3,4-difluorophenyl)methyl]benzamide]",< 50
6,"Nc1ncc(-c2cccc(C(=O)NCc3cc(F)cc(F)c3)c2)nc1C(=O)N[C@H]1CCCNC1 [Example 868, 3-amino-6-[3-({[(3,5-difluorophenyl)methyl]amino}carbonyl)phenyl]-N-[(3S)-piperidin-3-yl]pyrazine-2-carboxamide]",< 50
7,"COC(=O)c1ccc(CNC(=O)c2cccc(-c3cnc(N)c(C(=O)N[C@H]4CCCNC4)n3)c2)cc1 [Example 869, methyl 4-[({[3-(5-amino-6-{[(3S)-piperidin-3-ylamino]carbonyl}pyrazin-2-yl)phenyl]carbonyl}amino)methyl]benzoate]",< 50
8,"Nc1ncc(-c2cccc(C(=O)NCc3ccc(Br)cc3)c2)nc1C(=O)N[C@H]1CCCNC1 [Example 870, 3-amino-6-[3-({[(4-bromophenyl)methyl]amino}carbonyl)phenyl]-N-[(3S)-piperidin-3-yl]pyrazine-2-carboxamide]",< 50
9,"Nc1ncc(-c2cccc(C(=O)NCc3ccc(Br)cc3F)c2)nc1C(=O)N[C@H]1CCCNC1 [Example 871, 3-amino-6-[3-({[(4-bromo-2-fluorophenyl)methyl]amino}carbonyl)phenyl]-N-[(3S)-piperidin-3-yl]pyrazine-2-carboxamide]",< 50
10,"Nc1ncc(-c2cccc(C(=O)NCc3ccccc3Br)c2)nc1C(=O)N[C@H]1CCCNC1 [Example 872, 3-amino-6-[3-({[(2-bromophenyl)methyl]amino}carbonyl)phenyl]-N-[(3S)-piperidin-3-yl]pyrazine-2-carboxamide]",< 50
11,"Nc1ncc(-c2cccc(C(=O)NCc3ccc(F)cc3C(F)(F)F)c2)nc1C(=O)N[C@H]1CCCNC1 [Example 873, 3-amino-6-{3-[({[4-fluoro-2-(trifluoromethyl)phenyl]methyl}amino)carbonyl]phenyl}-N-[(3S)-piperidin-3-yl]pyrazine-2-carboxamide]",< 50
12,"Nc1ncc(-c2cccc(C(=O)NCc3cccc(C(F)(F)F)c3F)c2)nc1C(=O)N[C@H]1CCCNC1 [Example 874, 3-amino-6-{3-[({[2-fluoro-3-(trifluoromethyl)phenyl]methyl}amino)carbonyl]phenyl}-N-[(3S)-piperidin-3-yl]pyrazine-2-carboxamide]",< 50
13,"Nc1ncc(-c2cccc(C(=O)NC[C@@H]3CCNC3)c2)nc1C(=O)N[C@H]1CCCNC1 [Example 875, 3-amino-N-[(3S)-piperidin-3-yl]-6-[3-({[(3R)-pyrrolidin-3-ylmethyl]amino}carbonyl)phenyl]pyrazine-2-carboxamide]",< 50
14,"Nc1ncc(-c2cccc(C(=O)N[C@@H]3CCNC3)c2)nc1C(=O)N[C@H]1CCCNC1 [Example 876, 3-amino-N-[(3S)-piperidin-3-yl]-6-(3-{[(3R)-pyrrolidin-3-ylamino]carbonyl}phenyl)pyrazine-2-carboxamide]",< 50
15,"Nc1ncc(-c2cccc(C(=O)NCCN3CCCCC3)c2)nc1C(=O)N[C@H]1CCCNC1 [Example 877, 3-amino-N-[(3S)-piperidin-3-yl]-6-(3-{[(2-piperidin-1-ylethyl)amino]carbonyl}phenyl)pyrazine-2-carboxamide]",< 50
16,"Nc1ncc(-c2cccc(C(=O)NCCc3ccccc3)c2)nc1C(=O)N[C@H]1CCCNC1 [Example 878, 3-amino-6-(3-{[(2-phenylethyl)amino]carbonyl}phenyl)-N-[(3S)-piperidin-3-yl]pyrazine-2-carboxamide]",< 50
17,"COCCNC(=O)c1cccc(-c2cnc(N)c(C(=O)N[C@H]3CCCNC3)n2)c1 [Example 879, 3-amino-6-[3-({[2-(methyloxy)ethyl]amino}carbonyl)phenyl]-N-[(3S)-piperidin-3-yl]pyrazine-2-carboxamide]",50 to 1000
18,"Nc1ncc(-c2cccc(C(=O)NCc3ccc(I)cc3)c2)nc1C(=O)N[C@H]1CCCNC1 [Example 880, 3-amino-6-[3-({[(4-iodophenyl)methyl]amino}carbonyl)phenyl]-N-[(3S)-piperidin-3-yl]pyrazine-2-carboxamide]",< 50
19,"Nc1ncc(-c2cccc(C(=O)NCc3ccccc3Cl)c2)nc1C(=O)N[C@H]1CCCNC1 [Example 881, 3-amino-6-[3-({[(2-chlorophenyl)methyl]amino}carbonyl)phenyl]-N-[(3S)-piperidin-3-yl]pyrazine-2-carboxamide]",< 50

# Second part, the compound after the results:
row,IC50 [nM],Structure (SMILES)
1,< 50,"Nc1ncc(-c2cccc(CNC(=O)c3ccc(F)cc3)c2)nc1C(=O)N[C@H]1CCCNC1 [Example 882, 3-amino-6-[3-({[(4-fluorophenyl)carbonyl]amino}methyl)phenyl]-N-[(3S)-piperidin-3-yl]pyrazine-2-carboxamide]"
2,< 50,"Nc1ncc(-c2cccc(CNC(=O)c3ccc(OC(F)(F)F)cc3)c2)nc1C(=O)N[C@H]1CCCNC1 [Example 883, 3-amino-N-[(3S)-piperidin-3-yl]-6-(3-{[({4-[(trifluoromethyl)oxy]phenyl}carbonyl)amino]methyl}phenyl)pyrazine-2-carboxamide]"
3,< 50,"Nc1ncc(-c2cccc(CNC(=O)c3ccc(Cl)cc3)c2)nc1C(=O)N[C@H]1CCCNC1 [Example 884, 3-amino-6-[3-({[(4-chlorophenyl)carbonyl]amino}methyl)phenyl]-N-[(3S)-piperidin-3-yl]pyrazine-2-carboxamide]"
4,< 50,"Nc1ncc(-c2cccc(NC(=O)Cc3ccc(Cl)cc3)c2)nc1C(=O)N[C@H]1CCCNC1 [Example 885, 3-amino-6-(3-{[(4-chlorophenyl)acetyl]amino}phenyl)-N-[(3S)-piperidin-3-yl]pyrazine-2-carboxamide]"
5,< 50,"Nc1ncc(-c2cccc(NC(=O)Cc3c(Cl)cccc3Cl)c2)nc1C(=O)N[C@H]1CCCNC1 [Example 886, 3-amino-6-(3-{[(2,6-dichlorophenyl)acetyl]amino}phenyl)-N-[(3S)-piperidin-3-yl]pyrazine-2-carboxamide]"
6,< 50,"Nc1ncc(-c2cccc(NC(=O)Cc3c(F)c(F)c(F)c(F)c3F)c2)nc1C(=O)N[C@H]1CCCNC1 [Example 887, 3-amino-6-(3-{[(pentafluorophenyl)acetyl]amino}phenyl)-N-[(3S)-piperidin-3-yl]pyrazine-2-carboxamide]"
7,< 50,"Nc1ncc(-c2cccc(NC(=O)Cc3ccc(F)cc3Cl)c2)nc1C(=O)N[C@H]1CCCNC1 [Example 888, 3-amino-6-(3-{[(2-chloro-4-fluorophenyl)acetyl]amino}phenyl)-N-[(3S)-piperidin-3-yl]pyrazine-2-carboxamide]"
8,< 50,"CSc1ccc(CC(=O)Nc2cccc(-c3cnc(N)c(C(=O)N[C@H]4CCCNC4)n3)c2)cc1 [Example 889, 3-amino-6-[3-({[4-(methylthio)phenyl]acetyl}amino)phenyl]-N-[(3S)-piperidin-3-yl]pyrazine-2-carboxamide]"
9,< 50,"Nc1ncc(-c2cccc(NC(=O)Cc3ccc(Cl)cc3Cl)c2)nc1C(=O)N[C@H]1CCCNC1 [Example 890, 3-amino-6-(3-{[(2,4-dichlorophenyl)acetyl]amino}phenyl)-N-[(3S)-piperidin-3-yl]pyrazine-2-carboxamide]"
10,< 50,"Nc1ncc(-c2cccc(NC(=O)c3cc(-c4ccc(Cl)cc4)cs3)c2)nc1C(=O)N[C@H]1CCCNC1 [Example 891, 3-amino-6-[3-({[4-(4-chlorophenyl)-2-thienyl]carbonyl}amino)phenyl]-N-[(3S)-piperidin-3-yl]pyrazine-2-carboxamide]"
11,< 50,"Nc1ncc(-c2cccc(CNC(=O)c3ccc(Br)cc3)c2)nc1C(=O)N[C@H]1CCCNC1 [Example 892, 3-amino-6-[3-({[(4-bromophenyl)carbonyl]amino}methyl)phenyl]-N-[(3S)-piperidin-3-yl]pyrazine-2-carboxamide]"
